Several values for one entry are separate records, joined by “and”; a condition that tells them apart may be missing. Identical values can stand only once. Toxic doses and inconclusive results are not listed. Rule as the data show it: active = T/C of 150% or more; inactive = T/C below 125%.
System: L1210 leukemia ip in BDF1 mice, survival T/C
Experiment: NCI In Vivo Anticancer Drug Screen. Data for tumor model L1210 Leukemia (intraperitoneal) in B6D2F1 (BDF1) mice
Conditions: endpoint: mean survival time, higher = longer survival
In short: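 Survival endpoint. Drug-treated group vs vehicle group, expressed as T divided by C. Tumor passaged by transplantation.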

[1] = dose: 100.0 mg/kg/injection, schedule: Q01DX001 (ip), vehicle: carboxymethylcellulose (CMC)
[2] = dose: 200.0 mg/kg/injection, schedule: Q01DX001 (ip), vehicle: carboxymethylcellulose (CMC)
[3] = dose: 400.0 mg/kg/injection, schedule: Q01DX001 (ip), vehicle: carboxymethylcellulose (CMC)
[4] = dose: 5.0 mg/kg/injection, schedule: Q01DX001 (ip), vehicle: saline
[5] = dose: 10.0 mg/kg/injection, schedule: Q01DX001 (ip), vehicle: saline
[6] = dose: 20.0 mg/kg/injection, schedule: Q01DX001 (ip), vehicle: saline
[7] = dose: 100.0 mg/kg/injection, schedule: Q04DX003 (ip), vehicle: Klucel (hydroxypropylcellulose) (HPC)
[8] = dose: 200.0 mg/kg/injection, schedule: Q04DX003 (ip), vehicle: Klucel (hydroxypropylcellulose) (HPC)
[9] = dose: 400.0 mg/kg/injection, schedule: Q04DX003 (ip), vehicle: Klucel (hydroxypropylcellulose) (HPC)
[10] = dose: 100.0 mg/kg/injection, schedule: Q04DX003 (ip), vehicle: saline with Tween-80
[11] = dose: 200.0 mg/kg/injection, schedule: Q04DX003 (ip), vehicle: saline with Tween-80
[12] = dose: 400.0 mg/kg/injection, schedule: Q04DX003 (ip), vehicle: saline with Tween-80
[13] = dose: 100.0 mg/kg/injection, schedule: Q04DX002 (ip), vehicle: saline with Tween-80
[14] = dose: 200.0 mg/kg/injection, schedule: Q04DX002 (ip), vehicle: saline with Tween-80
[15] = dose: 400.0 mg/kg/injection, schedule: Q04DX002 (ip), vehicle: saline with Tween-80
[16] = dose: 50.0 mg/kg/injection, schedule: Q01DX001 (ip), vehicle: carboxymethylcellulose (CMC)

Measured: T/C

Cn1c2c(c(=O)n(C)c1=O)C(=Nc1ccccc1N)C(=O)N2
inactive: dose: 100.0 mg/kg/injection, schedule: Q01DX001 (ip), vehicle: saline 101 % of control | dose: 200.0 mg/kg/injection, schedule: Q01DX001 (ip), vehicle: saline 101 % of control | dose: 400.0 mg/kg/injection, schedule: Q01DX001 (ip), vehicle: saline 90 % of control

O=C1c2ccccc2-c2cc(Br)c([N+](=O)[O-])c(Br)c21
inactive: [1] 96 % of control | [2] 101 % of control | [3] 102 % of control

CC1=CC(O)C(C(C)C)C1 (stereo unspecified)
inactive: dose: 100.0 mg/kg/injection, schedule: Q01DX001 (ip), vehicle: other 102 % of control | dose: 200.0 mg/kg/injection, schedule: Q01DX001 (ip), vehicle: other 98 % of control | dose: 400.0 mg/kg/injection, schedule: Q01DX001 (ip), vehicle: other 98 % of control

FC(F)(F)S.[Hg]
inactive: dose: 5.0 mg/kg/injection, schedule: Q01DX009 (ip), vehicle: saline 86 % of control | dose: 10.0 mg/kg/injection, schedule: Q01DX009 (ip), vehicle: saline 93 % of control

COC12CC3C4=CCOC5CC(=O)N6c7ccccc7C1(CCN2C4)C6C53 (stereo unspecified)
inactive: [4] 97 % of control | [5] 97 % of control | [6] 101 % of control

CCCCCCCCCCCCCCCCP(=O)(OCCOCCCCCC)OCCOCCCCCC
inactive: dose: 12.5 mg/kg/injection, schedule: Q01DX009 (ip), vehicle: acetone 93 % of control | dose: 12.5 mg/kg/injection, schedule: Q04DX003 (ip), vehicle: acetone 95 % of control | dose: 25.0 mg/kg/injection, schedule: Q01DX009 (ip), vehicle: acetone 100 % of control | dose: 25.0 mg/kg/injection, schedule: Q04DX003 (ip), vehicle: acetone 109 % of control | dose: 50.0 mg/kg/injection, schedule: Q01DX009 (ip), vehicle: acetone 93 % of control | dose: 50.0 mg/kg/injection, schedule: Q04DX003 (ip), vehicle: acetone 106 % of control

CC(/C=N/N(C)C(=N)N)=N\N(C)C(=N)N
inactive: dose: 15.0 mg/kg/injection, schedule: Q01DX Z (ip), vehicle: saline 88 % of control | dose: 30.0 mg/kg/injection, schedule: Q01DX Z (ip), vehicle: saline 103 % of control | dose: 60.0 mg/kg/injection, schedule: Q01DX Z (ip), vehicle: saline 98 % of control | dose: 120.0 mg/kg/injection, schedule: Q01DX Z (ip), vehicle: saline 102 % of control | dose: 120.0 mg/kg/injection, schedule: Q01DX Z (oral), vehicle: saline 103 % of control | dose: 240.0 mg/kg/injection, schedule: Q01DX Z (oral), vehicle: saline 97 % of control | dose: 480.0 mg/kg/injection, schedule: Q01DX Z (oral), vehicle: saline 106 % of control | dose: 960.0 mg/kg/injection, schedule: Q01DX Z (oral), vehicle: saline 113 % of control

CC(C)CCC(O)c1c[nH]c(=O)[nH]c1=O (stereo unspecified)
inactive: [7] 105 % of control | [8] 105 % of control | [9] 94 % of control

COP(=O)(NNc1cc(Cl)ccc1Cl)OC
inactive: [10] 104 % of control | [11] 106 % of control | [12] 101 % of control

O=C(O)c1cc(C(Cl)(Cl)Cl)ccc1C(Cl)(Cl)Cl
inactive: dose: 50.0 mg/kg/injection, schedule: Q01DX009 (ip), vehicle: saline sonified 95 % of control | dose: 50.0 mg/kg/injection, schedule: Q04DX003 (ip), vehicle: Klucel (hydroxypropylcellulose) (HPC) 97 % of control | dose: 100.0 mg/kg/injection, schedule: Q01DX009 (ip), vehicle: saline sonified 101 % of control | [7] 96 % of control | dose: 200.0 mg/kg/injection, schedule: Q01DX009 (ip), vehicle: saline sonified 98 % of control | [8] 103 % of control

CC(C)=C(Cl)C(C)(C)C(=O)O
inactive: [10] 103 % of control | [11] 101 % of control | [12] 97 % of control

CCCCS(=O)(=O)N1CCC(C)CC1
inactive: dose: 100.0 mg/kg/injection, schedule: Q04DX002 (ip), vehicle: Klucel (hydroxypropylcellulose) (HPC) 87 % of control | dose: 200.0 mg/kg/injection, schedule: Q04DX002 (ip), vehicle: Klucel (hydroxypropylcellulose) (HPC) 91 % of control | dose: 400.0 mg/kg/injection, schedule: Q04DX002 (ip), vehicle: Klucel (hydroxypropylcellulose) (HPC) 94 % of control

COc1ccc(C=NCCN=Cc2ccc(OC)cc2)cc1
inactive: dose: 50.0 mg/kg/injection, schedule: Q01DX009 (ip), vehicle: Klucel (hydroxypropylcellulose) (HPC) 88 % of control | dose: 100.0 mg/kg/injection, schedule: Q01DX009 (ip), vehicle: Klucel (hydroxypropylcellulose) (HPC) 106 % of control | [7] 86 % of control | dose: 200.0 mg/kg/injection, schedule: Q01DX009 (ip), vehicle: Klucel (hydroxypropylcellulose) (HPC) 104 % of control | [9] 90 % of control

Cc1ccc(S(=O)(=O)Nc2ccc([N+](=O)[O-])cc2)cc1
inactive: dose: 100.0 mg/kg/injection, schedule: Q01DX001 (ip), vehicle: Klucel (hydroxypropylcellulose) (HPC) 97 % of control | dose: 200.0 mg/kg/injection, schedule: Q01DX001 (ip), vehicle: Klucel (hydroxypropylcellulose) (HPC) 97 % of control | dose: 400.0 mg/kg/injection, schedule: Q01DX001 (ip), vehicle: Klucel (hydroxypropylcellulose) (HPC) 113 % of control

CCO/C=C(/C(=O)OCC)C(=O)C(OCC)OCC
inactive: dose: 100.0 mg/kg/injection, schedule: Q01DX009 (ip), vehicle: saline 101 % of control | dose: 100.0 mg/kg/injection, schedule: Q04DX003 (ip), vehicle: saline 95 % of control | dose: 200.0 mg/kg/injection, schedule: Q01DX009 (ip), vehicle: saline 101 % of control | dose: 200.0 mg/kg/injection, schedule: Q04DX003 (ip), vehicle: saline 97 % of control | dose: 400.0 mg/kg/injection, schedule: Q01DX009 (ip), vehicle: saline 98 % of control | dose: 400.0 mg/kg/injection, schedule: Q04DX003 (ip), vehicle: saline 94 % of control

Nc1nc(N)c2c(no[n+]2[O-])n1
inactive: dose: 75.0 mg/kg/injection, schedule: Q01DX001 (ip), vehicle: other 98 % of control

On1ccccc1=S
inactive: dose: 6.25 mg/kg/injection, schedule: Q04DX002 (ip), vehicle: saline with Tween-80 100 % of control | dose: 12.5 mg/kg/injection, schedule: Q04DX002 (ip), vehicle: saline with Tween-80 111 % of control | dose: 25.0 mg/kg/injection, schedule: Q04DX002 (ip), vehicle: saline with Tween-80 100 % of control

C1=COC(/C=N/Nc2nnc(N/N=C/C3CCC=CO3)c3ccccc23)CC1 (stereo unspecified)
inactive: [4] 98 % of control | [5] 111 % of control | [6] 96 % of control | dose: 40.0 mg/kg/injection, schedule: Q01DX001 (ip), vehicle: saline 102 % of control

COc1cc(C=O)ccc1OC(=O)Nc1cc(Cl)ccc1C
inactive: dose: 100.0 mg/kg/injection, schedule: Q01DX001 (ip), vehicle: saline with Tween-80 92 % of control | dose: 100.0 mg/kg/injection, schedule: Q01DX009 (ip), vehicle: saline with Tween-80 94 % of control and 97 % of control | [13] 95 % of control and 88 % of control | [10] 97 % of control | dose: 200.0 mg/kg/injection, schedule: Q01DX001 (ip), vehicle: saline with Tween-80 88 % of control | dose: 200.0 mg/kg/injection, schedule: Q01DX009 (ip), vehicle: saline with Tween-80 106 % of control and 115 % of control | [14] 95 % of control and 98 % of control | [11] 95 % of control | dose: 400.0 mg/kg/injection, schedule: Q01DX001 (ip), vehicle: saline with Tween-80 97 % of control | dose: 400.0 mg/kg/injection, schedule: Q01DX009 (ip), vehicle: saline with Tween-80 105 % of control and 90 % of control | [15] 90 % of control and 91 % of control | [12] 103 % of control

CN1CCC(CNC(=O)c2ccccc2)c2ccccc21 (stereo unspecified)
inactive: [16] 100 % of control | [1] 96 % of control | [2] 92 % of control | [3] 102 % of control

O=C1C(=O)c2cc(Cl)ccc2-c2ccc(Cl)cc21
inactive: [16] 97 % of control | [1] 106 % of control | [2] 103 % of control | [3] 97 % of control

O=S(=O)(c1ccc(N=NN2CCCC2)cc1)N(CCCl)CCCl
inactive: [13] 101 % of control | [14] 101 % of control | [15] 108 % of control

Source: PubChem BioAssay AID248 (DTP/NCI, 2004)
